In ChEMBL document CHEMBL3886972, “Chemical entities” (2016):

Assays:
[1] = molecular target: PI3-kinase p110-alpha/p85-alpha (Homo sapiens, UniProt P42336); assay: null: The kinase activity was measured by using the commercial ADP Hunter Plus assay available from DiscoveRx (#33-016), which is a homogeneous assay to measure the accumulation of ADP, a universal product of kinase activity. […] The reaction was carried out for 1 hour at 25° C. Reagent A and B were sequentially added to the wells and plates were incubated for 30 min at 37° C. Fluorescence counts were read in a Victor instrument (Perkin Elmer) with the recommended settings (544 and 580 nm as excitation and emission wavelengths, respectively).; format: protein-complex assay
[2] = molecular target: DNA-dependent protein kinase catalytic subunit (Homo sapiens, UniProt P78527); assay: ADP Hunter Plus Assay: The kinase activity was measured by using the commercial ADP Hunter Plus assay available from DiscoveRx (#90-0083), which is a homogeneous assay to measure the accumulation of ADP, a universal product of kinase activity. The enzyme, DNA-PK was purchased from Promega (#V5811). The assay was done following the manufacturer recommendations with slight modifications: Mainly the kinase buffer was replace by 15 mM HEPES, pH 7.5, 10 mM MgCl2, 20 mM NaCl, 1 mM EGTA, 0.1 mg/mL BGG, 0.02% Tween 20. The DNA-PK was assayed in a titration experiment to determine the optimal protein concentration for the inhibition assay. To calculate the […] of the Compounds, serial 1:3 dilutions of the compounds were added to the enzyme at a fixed concentration (2 U/uL). The enzyme was preincubated with the inhibitor and 200 uM DNA substrate and then ATP was added to a final 75 uM concentration. Reaction was carried out for 1 hour at 37° C. Reagent A and B were sequentially added to the wells and plates were incubated for 30 min at RT. Fluorescence counts were read in a EnVision instrument (Perkin Elmer) with the recommended settings (550 and 590 nm as excitation and emission wavelengths, respectively).
Sequence of DNA-dependent protein kinase catalytic subunit (P78527 whole entry): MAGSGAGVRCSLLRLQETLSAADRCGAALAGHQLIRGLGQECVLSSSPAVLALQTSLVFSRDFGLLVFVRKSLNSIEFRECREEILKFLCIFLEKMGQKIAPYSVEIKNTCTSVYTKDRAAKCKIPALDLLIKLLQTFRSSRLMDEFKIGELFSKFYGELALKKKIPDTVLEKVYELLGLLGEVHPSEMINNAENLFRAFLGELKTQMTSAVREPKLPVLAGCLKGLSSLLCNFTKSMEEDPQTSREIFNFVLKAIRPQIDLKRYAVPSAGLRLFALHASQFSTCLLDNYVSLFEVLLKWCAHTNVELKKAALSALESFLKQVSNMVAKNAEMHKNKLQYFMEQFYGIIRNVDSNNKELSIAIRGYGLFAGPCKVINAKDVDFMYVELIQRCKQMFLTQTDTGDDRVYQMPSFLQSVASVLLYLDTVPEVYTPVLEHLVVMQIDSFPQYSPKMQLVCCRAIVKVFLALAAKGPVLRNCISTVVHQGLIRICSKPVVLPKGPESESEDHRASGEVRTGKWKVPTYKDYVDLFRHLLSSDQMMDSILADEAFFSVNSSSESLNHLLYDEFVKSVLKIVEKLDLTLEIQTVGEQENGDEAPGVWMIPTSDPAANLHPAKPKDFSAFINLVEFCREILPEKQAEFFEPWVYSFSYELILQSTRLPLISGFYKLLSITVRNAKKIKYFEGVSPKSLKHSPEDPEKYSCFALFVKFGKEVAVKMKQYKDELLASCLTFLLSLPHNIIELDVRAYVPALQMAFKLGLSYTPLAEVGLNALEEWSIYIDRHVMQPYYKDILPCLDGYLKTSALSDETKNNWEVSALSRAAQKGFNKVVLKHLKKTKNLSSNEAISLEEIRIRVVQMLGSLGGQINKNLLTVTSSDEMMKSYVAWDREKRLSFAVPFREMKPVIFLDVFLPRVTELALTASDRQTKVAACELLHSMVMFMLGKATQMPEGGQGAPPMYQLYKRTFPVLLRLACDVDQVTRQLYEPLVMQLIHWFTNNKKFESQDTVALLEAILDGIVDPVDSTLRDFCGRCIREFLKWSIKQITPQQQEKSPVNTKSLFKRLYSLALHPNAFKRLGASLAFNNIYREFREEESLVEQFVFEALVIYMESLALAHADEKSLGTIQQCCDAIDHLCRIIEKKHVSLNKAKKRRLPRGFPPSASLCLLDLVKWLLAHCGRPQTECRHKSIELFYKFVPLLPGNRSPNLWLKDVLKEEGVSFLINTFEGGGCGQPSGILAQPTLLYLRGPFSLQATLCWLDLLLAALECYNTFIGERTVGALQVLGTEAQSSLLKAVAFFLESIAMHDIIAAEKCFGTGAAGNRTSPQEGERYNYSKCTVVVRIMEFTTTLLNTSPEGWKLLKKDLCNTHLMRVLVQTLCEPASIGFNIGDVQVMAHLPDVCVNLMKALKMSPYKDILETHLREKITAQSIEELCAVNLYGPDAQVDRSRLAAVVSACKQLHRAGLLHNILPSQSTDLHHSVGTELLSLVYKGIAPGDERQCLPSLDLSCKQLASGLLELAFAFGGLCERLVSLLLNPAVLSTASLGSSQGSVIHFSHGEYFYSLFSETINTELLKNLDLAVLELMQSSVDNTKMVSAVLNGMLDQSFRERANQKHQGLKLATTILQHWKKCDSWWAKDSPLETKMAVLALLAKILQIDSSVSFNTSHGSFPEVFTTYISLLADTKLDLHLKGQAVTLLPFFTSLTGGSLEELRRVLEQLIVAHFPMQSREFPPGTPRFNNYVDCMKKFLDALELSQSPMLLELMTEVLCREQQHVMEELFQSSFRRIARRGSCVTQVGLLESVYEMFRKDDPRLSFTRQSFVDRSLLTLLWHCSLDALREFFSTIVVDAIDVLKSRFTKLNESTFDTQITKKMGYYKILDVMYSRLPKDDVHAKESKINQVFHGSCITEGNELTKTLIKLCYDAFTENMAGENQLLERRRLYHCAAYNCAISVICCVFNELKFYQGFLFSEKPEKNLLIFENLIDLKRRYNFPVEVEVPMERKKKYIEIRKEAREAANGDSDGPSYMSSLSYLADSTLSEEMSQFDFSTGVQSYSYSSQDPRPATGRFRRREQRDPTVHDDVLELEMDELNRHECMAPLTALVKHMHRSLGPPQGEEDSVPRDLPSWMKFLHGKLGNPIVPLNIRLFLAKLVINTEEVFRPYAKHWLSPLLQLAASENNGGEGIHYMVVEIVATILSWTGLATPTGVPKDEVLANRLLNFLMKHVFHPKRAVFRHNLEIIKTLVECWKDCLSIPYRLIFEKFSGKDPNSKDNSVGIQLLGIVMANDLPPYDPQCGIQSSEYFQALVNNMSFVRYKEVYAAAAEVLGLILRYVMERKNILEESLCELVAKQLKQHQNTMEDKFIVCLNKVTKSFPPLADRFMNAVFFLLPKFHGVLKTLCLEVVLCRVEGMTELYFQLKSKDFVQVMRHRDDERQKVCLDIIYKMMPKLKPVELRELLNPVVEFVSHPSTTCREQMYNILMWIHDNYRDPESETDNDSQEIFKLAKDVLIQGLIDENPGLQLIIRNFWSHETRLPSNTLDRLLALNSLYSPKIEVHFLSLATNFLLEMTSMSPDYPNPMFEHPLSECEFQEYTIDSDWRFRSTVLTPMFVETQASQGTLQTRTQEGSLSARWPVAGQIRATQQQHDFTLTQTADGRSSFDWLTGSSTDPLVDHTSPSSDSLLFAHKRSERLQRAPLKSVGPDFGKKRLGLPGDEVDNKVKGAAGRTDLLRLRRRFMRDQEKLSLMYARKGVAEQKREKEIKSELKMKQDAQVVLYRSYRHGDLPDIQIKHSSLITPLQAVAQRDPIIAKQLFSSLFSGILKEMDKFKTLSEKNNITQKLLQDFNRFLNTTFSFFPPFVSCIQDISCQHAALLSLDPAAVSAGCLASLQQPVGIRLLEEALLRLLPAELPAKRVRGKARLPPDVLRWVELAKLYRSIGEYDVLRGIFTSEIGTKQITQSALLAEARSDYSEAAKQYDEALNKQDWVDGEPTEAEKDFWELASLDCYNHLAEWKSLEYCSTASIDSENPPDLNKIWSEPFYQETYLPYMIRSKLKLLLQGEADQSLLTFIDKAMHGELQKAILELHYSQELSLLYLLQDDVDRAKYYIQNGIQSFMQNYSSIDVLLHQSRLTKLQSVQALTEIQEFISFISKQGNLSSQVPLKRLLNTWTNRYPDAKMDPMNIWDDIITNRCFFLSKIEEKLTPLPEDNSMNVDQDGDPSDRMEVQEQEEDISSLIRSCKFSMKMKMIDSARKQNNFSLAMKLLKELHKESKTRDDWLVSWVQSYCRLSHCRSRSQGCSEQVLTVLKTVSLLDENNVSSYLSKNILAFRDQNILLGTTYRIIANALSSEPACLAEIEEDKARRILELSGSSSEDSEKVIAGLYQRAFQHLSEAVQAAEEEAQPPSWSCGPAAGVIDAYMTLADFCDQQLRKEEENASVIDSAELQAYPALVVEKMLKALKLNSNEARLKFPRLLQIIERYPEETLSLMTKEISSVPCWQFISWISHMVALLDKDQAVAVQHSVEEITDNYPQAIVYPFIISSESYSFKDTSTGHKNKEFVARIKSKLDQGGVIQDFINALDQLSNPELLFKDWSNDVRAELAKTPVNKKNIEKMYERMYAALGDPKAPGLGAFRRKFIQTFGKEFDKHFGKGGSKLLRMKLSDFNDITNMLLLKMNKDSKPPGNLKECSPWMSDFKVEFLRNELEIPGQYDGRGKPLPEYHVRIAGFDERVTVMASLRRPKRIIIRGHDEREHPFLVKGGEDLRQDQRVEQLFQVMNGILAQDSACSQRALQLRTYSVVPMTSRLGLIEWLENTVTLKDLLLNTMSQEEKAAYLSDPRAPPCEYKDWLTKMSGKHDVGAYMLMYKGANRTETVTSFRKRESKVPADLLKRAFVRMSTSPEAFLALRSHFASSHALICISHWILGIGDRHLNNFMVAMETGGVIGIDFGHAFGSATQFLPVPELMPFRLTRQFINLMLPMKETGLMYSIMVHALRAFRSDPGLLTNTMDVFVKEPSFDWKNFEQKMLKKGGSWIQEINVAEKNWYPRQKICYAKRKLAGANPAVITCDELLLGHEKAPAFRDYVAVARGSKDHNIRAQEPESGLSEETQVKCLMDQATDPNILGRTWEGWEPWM

| Compound | IC50 [1] [µM] | IC50 [2] [µM] |
| --- | --- | --- |
| CS(=O)(=O)C1(c2nc(-c3cccc4[nH]ccc34)nc3c2OCC2COCCN32)CCOCC1 (stereo not given) | 13.3 |  |
| CS(=O)(=O)C1(c2nc(-c3cccc4[nH]ccc34)nc3c2OC[C@@H]2COCCN32)CCC1 | 3.16 | 10 |
| c1cc(-c2nc(-c3cccc4[nH]ccc34)c3c(n2)N2CCOCC2CO3)c2cc[nH]c2c1 (stereo not given) | 6.55 | 10 |
| CC(C)(c1nc(-c2cccc3[nH]ccc23)nc2c1OCC1COCCN21)S(C)(=O)=O (stereo not given) | 1.7 | 17.3 |
| CC(C)(O)c1nc(-c2cc(F)cc3[nH]ccc23)nc2c1OC[C@@H]1COCCN21 | 2.27 | 0.886 |
| CNc1nc2ccccc2n1-c1nc2c(c(C3(S(C)(=O)=O)CCOCC3)n1)OCC1COCCN21 (stereo not given) | ≥ 50 | 10 |
| CC(C)(c1nc(-c2c(F)ccc3[nH]ccc23)nc2c1OCC1COCCN21)S(C)(=O)=O (stereo not given) | 7.9 |  |
| CS(=O)(=O)C1(c2nc(-c3cccc4[nH]ccc34)nc3c2OC[C@@H]2COCCN32)CCOCC1 | 4.9 |  |
| CC(C)Nc1nc2ccccc2n1-c1nc2c(c(C(C)(C)S(C)(=O)=O)n1)OC[C@@H]1COCCN21 | 6.61 | 4.3 |
| CC(C)(O)c1nc(-c2cccc3[nH]ccc23)nc2c1OCC1COCCN21 (stereo not given) | 2.39 | 7.21 |
| CS(=O)(=O)C1(c2nc(-c3cccc4[nH]ccc34)nc3c2OCC2COCCN32)CC1 (stereo not given) | 2.5 | ≥ 25 |
| COc1ccc(-c2nc3c(c(C4(S(C)(=O)=O)CCOCC4)n2)OCC2COCCN32)c2cc[nH]c12 (stereo not given) | 16.9 | ≥ 25 |
| CS(=O)(=O)Cc1nc(-c2cccc3[nH]ccc23)nc2c1OCC1COCCN21 (stereo not given) | 6.6 | 10 |
| CNc1nc2ccccc2n1-c1nc2c(c(C(C)(C)O)n1)OCC1COCCN21 (stereo not given) | 2.17 | 3.18 |
| CS(=O)(=O)C1(c2nc(-c3cccc4[nH]ccc34)nc3c2OC[C@H]2COCCN32)CCOCC1 | 11.5 |  |
| CC(C)(C#N)c1nc(-c2cccc3[nH]ccc23)nc2c1OCC1COCCN21 (stereo not given) | 1.67 | 10 |
| O=S(=O)(Cc1nc(-c2cccc3[nH]ccc23)nc2c1OCC1COCCN21)C(F)(F)F (stereo not given) | 14.9 | ≥ 25 |
| CS(=O)(=O)c1cccc(-c2nc(-c3cccc4[nH]ccc34)nc3c2OCC2COCCN32)c1 (stereo not given) | 10.6 | 5.04 |
| Cc1cc2c(-c3nc4c(c(C5(S(C)(=O)=O)CCOCC5)n3)OCC3COCCN43)cccc2[nH]1 (stereo not given) | 10.3 | ≥ 25 |
| CC(C)(c1nc(-c2cccc3[nH]ccc23)nc2c1OCC1COCCN21)S(=O)(=O)C1CC1 (stereo not given) | 2.4 |  |
| COc1cc(-c2nc3c(c(C4(S(C)(=O)=O)CCOCC4)n2)OCC2COCCN32)c2cc[nH]c2c1 (stereo not given) | 5 | 10 |
| CS(=O)(=O)C1(c2nc(-c3cccc4[nH]ccc34)nc3c2OC[C@@H]2COCCN32)CCNCC1 | 1.98 | 4.93 |

| Compound | IC50 [1] [µM] | IC50 [2] [µM] |
| --- | --- | --- |
| CS(=O)(=O)C1(c2nc(-c3ccnc4[nH]ccc34)nc3c2OCC2COCCN32)CCOCC1 (stereo not given) | 8.5 | 10 |
| CCCNc1nc2ccccc2n1-c1nc2c(c(C(C)(C)S(C)(=O)=O)n1)OC[C@@H]1COCCN21 | 6.25 | 6.65 |
| CNc1nc2cc(Cl)ccc2n1-c1nc2c(c(C3(S(C)(=O)=O)CCC3)n1)OC[C@@H]1COCCN21 | ≥ 50 | 10 |
| COc1cc(-c2nc3c(c(C4([S@TB1](C)(=O)=O)CCOCC4)n2)OCCC2COCCN32)c2cc[nH]c2c1 (stereo not given) | 23.3 | ≥ 25 |
| CS(=O)(=O)C1(c2nc(-c3cc(F)cc4[nH]ccc34)nc3c2OCC2COCCN32)CCOCC1 (stereo not given) | 6 | 10 |
| CS(=O)(=O)C1(c2nc(-c3cncc4[nH]ccc34)nc3c2OCC2COCCN32)CCOCC1 (stereo not given) | 2 | ≥ 25 |
| CNc1nc2ccccc2n1-c1nc2c(c(C(C)(C)S(C)(=O)=O)n1)OC[C@@H]1COCCN21 | 1.9 | 1.51 |
| CNc1nc2ccc(Cl)cc2n1-c1nc2c(c(C3(S(C)(=O)=O)CCC3)n1)OC[C@@H]1COCCN21 | ≥ 50 | 10 |
| CNc1nc2ccccc2n1-c1nc2c(c(C3(S(C)(=O)=O)CCOCC3)n1)OCCC1COCCN21 (stereo not given) | ≥ 50 | 10 |
| CC(C)(c1nc(-c2cccc3[nH]ncc23)nc2c1OC[C@H]1COCCN21)S(C)(=O)=O | 0.4 | 4.15 |
| CNc1nc2ccccc2n1-c1nc2c(c(C(C)(C)S(C)(=O)=O)n1)OCC1COCCN21 (stereo not given) | 2.8 |  |
| CS(=O)(=O)C1(c2nc(-c3c(F)ccc4[nH]ccc34)nc3c2OCC2COCCN32)CCOCC1 (stereo not given) | 21 | 10 |
| CC(C)(c1nc(-c2cccc3[nH]ccc23)nc2c1OCC[C@H]1COCCN21)S(C)(=O)=O | 19.3 |  |
| CC1(c2nc(-c3cccc4[nH]ccc34)nc3c2OCC2COCCN32)CCCS1(=O)=O (stereo not given) | 6.9 | 10 |
| CS(=O)(=O)C1(c2nc(-c3cccc4[nH]ccc34)nc3c2OCC[C@@H]2COCCN32)CCOCC1 | ≥ 50 | ≥ 25 |
| C[S@TB17](=O)(=O)Nc1nc(-c2cccc3[nH]ccc23)nc2c1OCC1COCCN21 (stereo not given) | 6.95 | 10 |
| CN1CCC(c2nc(-c3cccc4[nH]ccc34)nc3c2OCC2COCCN32)(S(C)(=O)=O)CC1 (stereo not given) | 12.5 | ≥ 25 |
| CCOC(=O)N1CCC(c2nc(-c3cccc4[nH]ccc34)nc3c2OC[C@@H]2COCCN32)(S(C)(=O)=O)CC1 | 7.38 | 10 |
| CNc1nc2ccccc2n1-c1nc2c(c(C(C)(C)[S@TB1](C)(=O)=O)n1)OCCC1COCCN21 (stereo not given) |  | 1.88 |
| C[S@TB17](=O)(=O)C1(c2nc(-c3cc(F)cc4[nH]ccc34)nc3c2OCCC2COCCN32)CCOCC1 (stereo not given) | > 10 | ≥ 25 |
| CC(C)(c1nc(-c2ccnc3[nH]ccc23)nc2c1OCC1COCCN21)S(C)(=O)=O (stereo not given) | 0.67 | 2.82 |
| CCNc1nc2ccccc2n1-c1nc2c(c(C(C)(C)S(C)(=O)=O)n1)OC[C@@H]1COCCN21 | 2.65 | 0.196 |
